Source: US6420131B1, “Use of fluorescein aryl ethers in high throughput cytochrome P450 inhibition assays” (Gentest Corporation, priority 1999, dated 2002)

How the values were obtained:
Rat CYP2E1 = Rat CYP2E1 (Rattus norvegicus, UniProt P05182); experiment: Turnover of fluorometric substrates by rat CYP2E1; settings: substrate uM: Ia 2, AMMC 20, CEC 40, MFC 50, BFC 50, BQ 40, BzRes 50; 30 min; enzyme 87 nM, lymphoblastoid microsomes
Rat CYP3A2 = target: T1, Rat CYP3A2 (Rattus norvegicus, UniProt P05183); experiment: Turnover of fluorometric substrates by rat CYP3A2; settings: substrate uM: Ia 2, AMMC 20, CEC 40, MFC 50, BFC 50, BQ 40, BzRes 50; 30 min; enzyme 50 nM
T1 sequence (P05183 1-504): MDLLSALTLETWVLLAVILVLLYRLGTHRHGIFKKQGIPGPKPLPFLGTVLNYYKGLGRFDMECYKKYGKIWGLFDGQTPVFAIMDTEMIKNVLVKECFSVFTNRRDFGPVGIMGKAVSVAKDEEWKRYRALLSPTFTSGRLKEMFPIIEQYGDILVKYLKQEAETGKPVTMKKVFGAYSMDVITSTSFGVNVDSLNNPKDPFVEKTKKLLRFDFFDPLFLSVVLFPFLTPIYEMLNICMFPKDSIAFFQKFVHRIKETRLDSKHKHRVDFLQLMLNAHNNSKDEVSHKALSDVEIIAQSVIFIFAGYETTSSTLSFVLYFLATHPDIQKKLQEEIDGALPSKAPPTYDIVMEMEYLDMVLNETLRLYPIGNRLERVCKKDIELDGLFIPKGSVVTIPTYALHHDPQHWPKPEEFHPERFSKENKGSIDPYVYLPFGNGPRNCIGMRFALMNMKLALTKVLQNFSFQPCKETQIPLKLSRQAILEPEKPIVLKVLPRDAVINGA

Rat CYP2B1 = target: T2, Rat CYP2B1 (Rattus norvegicus, UniProt P00176); experiment: Turnover of fluorometric substrates by rat CYP2B1; settings: substrate uM: Ia 2, AMMC 20, CEC 40, MFC 50, BFC 50, BQ 40, BzRes 50; 30 min; enzyme 50 nM
T2 sequence (P00176 1-491): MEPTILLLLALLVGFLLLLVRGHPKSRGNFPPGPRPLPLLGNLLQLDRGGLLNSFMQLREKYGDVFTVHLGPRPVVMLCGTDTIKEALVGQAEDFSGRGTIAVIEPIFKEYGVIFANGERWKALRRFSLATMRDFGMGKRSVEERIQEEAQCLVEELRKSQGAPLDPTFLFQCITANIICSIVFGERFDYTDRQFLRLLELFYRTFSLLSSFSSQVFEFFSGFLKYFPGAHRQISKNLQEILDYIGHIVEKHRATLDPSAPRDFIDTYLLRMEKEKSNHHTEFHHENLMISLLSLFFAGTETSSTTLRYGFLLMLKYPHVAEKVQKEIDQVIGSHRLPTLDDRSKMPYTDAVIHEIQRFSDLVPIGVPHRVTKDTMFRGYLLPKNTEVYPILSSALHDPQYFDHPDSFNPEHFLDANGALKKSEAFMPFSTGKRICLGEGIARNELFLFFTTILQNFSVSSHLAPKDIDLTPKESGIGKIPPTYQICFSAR

Rat CYP2D1 = target: T3, Rat CYP2D1 (Rattus norvegicus, UniProt P10633); experiment: Turnover of fluorometric substrates by rat CYP2D1; settings: substrate uM: Ia 2, AMMC 20, CEC 40, MFC 50, BFC 50, BQ 40, BzRes 50; 30 min; enzyme 50 nM
T3 sequence (P10633 1-504): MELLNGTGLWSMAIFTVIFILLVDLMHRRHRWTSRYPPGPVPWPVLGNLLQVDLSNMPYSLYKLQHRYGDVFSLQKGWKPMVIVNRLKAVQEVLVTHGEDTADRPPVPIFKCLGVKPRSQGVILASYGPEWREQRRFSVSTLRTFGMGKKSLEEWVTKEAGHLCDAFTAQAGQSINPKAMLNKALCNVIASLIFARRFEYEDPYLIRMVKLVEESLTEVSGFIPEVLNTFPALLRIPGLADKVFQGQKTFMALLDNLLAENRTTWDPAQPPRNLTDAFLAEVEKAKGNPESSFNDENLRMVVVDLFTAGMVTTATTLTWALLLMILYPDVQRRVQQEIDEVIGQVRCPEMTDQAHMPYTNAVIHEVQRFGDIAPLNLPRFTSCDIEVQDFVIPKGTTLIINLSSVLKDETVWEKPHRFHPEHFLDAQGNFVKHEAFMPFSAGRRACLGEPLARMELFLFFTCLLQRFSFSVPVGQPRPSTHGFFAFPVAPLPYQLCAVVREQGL

Rat CYP2D2 = target: T4, Rat CYP2D2 (Rattus norvegicus, UniProt P10634); experiment: Turnover of fluorometric substrates by rat CYP2D2; settings: substrate uM: Ia 2, AMMC 20, CEC 40, MFC 50, BFC 50, BQ 40, BzRes 50; 30 min; enzyme 50 nM
T4 sequence (P10634 1-500): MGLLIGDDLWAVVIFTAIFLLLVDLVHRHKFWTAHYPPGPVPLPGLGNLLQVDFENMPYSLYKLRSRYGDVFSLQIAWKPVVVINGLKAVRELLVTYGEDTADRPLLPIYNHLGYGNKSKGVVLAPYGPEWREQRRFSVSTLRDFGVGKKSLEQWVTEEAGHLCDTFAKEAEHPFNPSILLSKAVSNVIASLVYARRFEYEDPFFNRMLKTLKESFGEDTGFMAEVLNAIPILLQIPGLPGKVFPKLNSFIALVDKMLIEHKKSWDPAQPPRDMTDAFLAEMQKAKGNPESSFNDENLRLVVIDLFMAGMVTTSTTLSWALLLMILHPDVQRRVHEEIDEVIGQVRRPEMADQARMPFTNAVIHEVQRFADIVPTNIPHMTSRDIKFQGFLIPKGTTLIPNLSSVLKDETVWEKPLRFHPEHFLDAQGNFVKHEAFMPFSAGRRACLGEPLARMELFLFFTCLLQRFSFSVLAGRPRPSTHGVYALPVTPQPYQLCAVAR

Rat CYP2C13 = target: T5, Rat CYP2C13 (Rattus norvegicus, UniProt P20814); experiment: Turnover of fluorometric substrates by rat CYP2C13; settings: substrate uM: Ia 2, AMMC 20, CEC 40, MFC 50, BFC 50, BQ 40, BzRes 50; 30 min; enzyme 50 nM
T5 sequence (P20814 1-490): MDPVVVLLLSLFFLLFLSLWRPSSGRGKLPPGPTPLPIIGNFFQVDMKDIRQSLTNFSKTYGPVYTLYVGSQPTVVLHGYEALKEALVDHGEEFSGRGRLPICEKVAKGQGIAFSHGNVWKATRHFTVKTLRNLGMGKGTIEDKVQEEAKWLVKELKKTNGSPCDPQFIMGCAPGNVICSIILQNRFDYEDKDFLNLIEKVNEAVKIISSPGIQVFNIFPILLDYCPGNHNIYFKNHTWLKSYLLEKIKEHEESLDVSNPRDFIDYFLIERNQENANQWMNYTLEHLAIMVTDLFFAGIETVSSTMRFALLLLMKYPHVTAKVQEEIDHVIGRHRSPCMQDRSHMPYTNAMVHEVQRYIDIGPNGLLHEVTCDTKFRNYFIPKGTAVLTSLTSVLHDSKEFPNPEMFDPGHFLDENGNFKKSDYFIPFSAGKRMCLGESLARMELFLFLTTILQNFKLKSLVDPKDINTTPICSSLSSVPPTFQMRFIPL

Rat CYP2E1, sequence (P05182 whole entry): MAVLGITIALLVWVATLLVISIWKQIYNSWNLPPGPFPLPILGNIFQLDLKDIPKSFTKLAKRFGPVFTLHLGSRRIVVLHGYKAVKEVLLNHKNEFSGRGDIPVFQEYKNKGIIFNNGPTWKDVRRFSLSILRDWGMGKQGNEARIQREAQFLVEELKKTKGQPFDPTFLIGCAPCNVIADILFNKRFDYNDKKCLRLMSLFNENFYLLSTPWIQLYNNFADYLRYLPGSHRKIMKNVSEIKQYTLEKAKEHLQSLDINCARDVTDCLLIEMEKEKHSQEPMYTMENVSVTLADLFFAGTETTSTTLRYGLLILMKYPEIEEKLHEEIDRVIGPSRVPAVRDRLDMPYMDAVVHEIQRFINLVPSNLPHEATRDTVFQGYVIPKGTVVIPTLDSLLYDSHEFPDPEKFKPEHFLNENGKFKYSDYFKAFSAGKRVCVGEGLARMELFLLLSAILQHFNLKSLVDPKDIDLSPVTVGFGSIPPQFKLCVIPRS

CCOc1ccc2cc(C#N)c(=O)oc2c1 [CEC, 7-Ethoxy-3-cyanocoumarin]
Turnover Numbers, CYP2E1 (Rat CYP2E1): 0.10 pmol product/min/pmol enzyme
Turnover Numbers, CYP3A2 (Rat CYP3A2): 0.15 pmol product/min/pmol enzyme
Turnover Numbers, CYP2B1 (Rat CYP2B1): 0.45 pmol product/min/pmol enzyme

c1ccc(COc2ccc3cccnc3c2)cc1 [BQ, 7-Benzyloxyquinoline]
Turnover Numbers, CYP2D1 (Rat CYP2D1): 5.3 pmol product/min/pmol enzyme
Turnover Numbers, CYP3A2 (Rat CYP3A2): 9.8 pmol product/min/pmol enzyme
Turnover Numbers, CYP2B1 (Rat CYP2B1): 2.5 pmol product/min/pmol enzyme
Turnover Numbers, CYP2D2 (Rat CYP2D2): 4.4 pmol product/min/pmol enzyme

O=c1cc(C(F)(F)F)c2ccc(OCc3ccccc3)cc2o1 [BFC, 7-Benzyloxy-4-trifluoromethylcoumarin]
Turnover Numbers, CYP2D1 (Rat CYP2D1): 0.25 pmol product/min/pmol enzyme
Turnover Numbers, CYP2C13 (Rat CYP2C13): 0.74 pmol product/min/pmol enzyme
Turnover Numbers, CYP3A2 (Rat CYP3A2): 1.04 pmol product/min/pmol enzyme
Turnover Numbers, CYP2B1 (Rat CYP2B1): 3.70 pmol product/min/pmol enzyme
Turnover Numbers, CYP2D2 (Rat CYP2D2): 0.12 pmol product/min/pmol enzyme

COc1ccc2c(C(F)(F)F)cc(=O)oc2c1 [MFC, 7-Methoxy-4-trifluoromethylcoumarin]
Turnover Numbers, CYP2E1 (Rat CYP2E1): 2.11 pmol product/min/pmol enzyme
Turnover Numbers, CYP2D1 (Rat CYP2D1): 0.09 pmol product/min/pmol enzyme
Turnover Numbers, CYP2C13 (Rat CYP2C13): 0.21 pmol product/min/pmol enzyme
Turnover Numbers, CYP2B1 (Rat CYP2B1): 2.82 pmol product/min/pmol enzyme
Turnover Numbers, CYP2D2 (Rat CYP2D2): 0.08 pmol product/min/pmol enzyme

O=c1ccc2nc3ccc(OCc4ccccc4)cc3oc-2c1 [BzRes, 7-benzyloxyresorufin]
Turnover Numbers, CYP2D1 (Rat CYP2D1): 0.02 pmol product/min/pmol enzyme
Turnover Numbers, CYP2C13 (Rat CYP2C13): 0.01 pmol product/min/pmol enzyme
Turnover Numbers, CYP3A2 (Rat CYP3A2): 0.09 pmol product/min/pmol enzyme
Turnover Numbers, CYP2B1 (Rat CYP2B1): 0.82 pmol product/min/pmol enzyme

O=C(OCc1ccccc1)c1ccccc1-c1c2ccc(=O)cc-2oc2cc(OCc3ccccc3)ccc12 [Compound Ia, O-Benzylfluorescein Benzyl Ester]
Turnover Numbers, CYP2D1 (Rat CYP2D1): 0.159 pmol product/min/pmol enzyme
Turnover Numbers, CYP2C13 (Rat CYP2C13): 0.003 pmol product/min/pmol enzyme
Turnover Numbers, CYP3A2 (Rat CYP3A2): 0.015 pmol product/min/pmol enzyme
Turnover Numbers, CYP2D2 (Rat CYP2D2): 0.194 pmol product/min/pmol enzyme
